Reference: patent publication US20170122958A1, “Enzymes Functional Probes” (University of Dundee, priority 2013, published 2017)

Legend:
[1] = test system: WT and mutants (Leu to Ala, Leu to Val and Leu to Ile) of Brd2(2); assay: ITC of compound into protein (FIG. 16); format: binding, human; details: 250 μM compound into 25 μM protein; result in words
Protocol: To investigate the utility of the new compounds further, the inventors performed isothermal titration experiments by titrating 250 μM compound solutions (AL, ME-Am1, ET-Am1, ME-Am2, ET-Am2, 9-ME, 9-ET, 9-ME-Am1 and 9-ET-Am1) 25 μM protein solutions (WT and mutants (Leu to Ala, Leu to Val and Leu to Ile) of Brd2(2)).
ITC experiments were carried out on a ITC200 instrument from MicroCal™ Experiments were conducted at 3 different temperatures 15° C., 25° C. and 30° C., while stirring at 1000 rpm. Buffers of proteins, peptide and compounds were matched to 20 mM HEPES pH 7.5 at 25° C. and 100 mM NaCl. Frozen protein was buffer exchanged as described for the DSF experiments. Each titration comprised 1 initial injection of 0.4 μl lasting 0.8 s, followed by 19 injections of 2 μl lasting 4 s each at 2 min intervals. The initial injection was discarded during data analysis. Standard and reverse titrations were conducted depending on the binding partners.
All the data was fitted to a single binding site model using the Microcal LLC ITC200 Origin software provided by the manufacturer to yield enthalpies of binding (ΔH) and binding constants (Kas). Further thermodynamic parameters were calculated from these values (changes in entropy ΔS, changes in free energy AG and dissociation constants (Kds)).

[2] = biological target: T1, Brd2(1)*(Met165-Leu) (Homo sapiens, UniProt P25440, M165L); assay: DSF thermal shift; format: binding; details: mutant
T1 construct: Plasmids of the eight single BET bromodomain constructs Brd2(1), Brd2(2), Brd3(1), Brd3(2); His6 (N); made in house; host or cells: E. coli BL21(DE3)
T1 sequence (P25440 74-180 M165L limits assumed): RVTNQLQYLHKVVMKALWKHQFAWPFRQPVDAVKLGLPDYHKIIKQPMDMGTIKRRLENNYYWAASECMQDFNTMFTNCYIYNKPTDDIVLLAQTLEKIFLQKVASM
Protocol: (§1) DSF assays were performed on a LightCycler®480 from Roche or a Mx3005P Real Time PCR machine from Stratagene. Prior to DSF assays, frozen proteins were buffer exchanged using Vivaspin®6 concentrators with a 10 kDa cutoff on a Centrifuge 5430 from Eppendorf at a speed of 6000×g to remove glycerol and to buffer the proteins in 20 mM HEPES pH 7.5 at 25° C. and 100 mM NaCl. SYPRO®Orange from Invitrogen Molecular Probes® was used as a reporter dye to monitor the denaturing process of the proteins. Samples were assayed on a 96-well plate with final protein concentrations of 2 μM for the LightCycler®480 and 6 μM for Mx3005P. Compounds were added at a final concentration of 10 μM for the LightCycler®480 and 30 μM for Mx3005P, while the tetra acetylated histone peptide was added to a final concentration of 100 μM and 300 μM respectively. […] The temperature was raised with a step of 0.6° C. per minute from 37° C. to 95° C. with the LightCycler®480 collecting 39 measurements per ° C., and 1° C. per minute from 25° C. to 95° C. with Mx3005P, collecting fluorescence readings at the end of each interval. Each sample was run in triplicates.
(§2) Collected data was analysed by IGOR Pro 6, a scientific software tool from Wave Metrics, Inc. Analysis was done following the recommendations of Niesen et al.. Fluorescence intensity was plotted as a function of temperature, generating a sigmoidal curve described by a two-state transition from folded to unfolded protein. Curves were fitted by the following sigmoidal equation: […]
(§3) A1 and A2 are the values of minimum and maximum intensities, respectively, x0 is the inflection point and dx is the rate. Fitted curves were differentiated in IGOR Pro 6 and the maximum of the first derivative was identified using the same program. These values correspond to the inflection points of the transition curves and thus to the melting temperatures of the proteins (Tm).

[3] = biological target: T2, Brd2(2)*(Met438-Leu) (Homo sapiens, UniProt P25440, M438L); assay: DSF thermal shift; format: binding; details: mutant
T2 construct: Plasmids of the eight single BET bromodomain constructs Brd2(1), Brd2(2), Brd3(1), Brd3(2); His6 (N); made in house; host or cells: E. coli BL21(DE3)
T2 sequence (P25440 344-453 M438L limits assumed): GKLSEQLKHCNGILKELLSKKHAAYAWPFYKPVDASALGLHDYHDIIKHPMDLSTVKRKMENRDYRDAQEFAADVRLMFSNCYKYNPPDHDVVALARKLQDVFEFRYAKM
Protocol: as §1, §2, §3

[4] = biological target: T3, Brd2(2)*(Met438-Ala) (Homo sapiens, UniProt P25440, M438A); assay: DSF thermal shift; format: binding; details: mutant
T3 construct: Plasmids of the eight single BET bromodomain constructs Brd2(1), Brd2(2), Brd3(1), Brd3(2); His6 (N); made in house; host or cells: E. coli BL21(DE3)
T3 sequence (P25440 344-453 M438A limits assumed): as the sequence (P25440 344-453 M438L limits assumed) above, with L95A counted along it
Protocol: as §1, §2, §3

[5] = biological target: Brd2(1)*(Met165Ala) (Homo sapiens, UniProt P25440, M165A); assay: DSF thermal shift; format: binding; design: Plasmids of the eight single BET bromodomain constructs Brd2(1), Brd2(2), Brd3(1), Brd3(2); His6 (N); made in house; host or cells: E. coli BL21(DE3); details: mutant
Sequence of Brd2(1)*(Met165Ala) (P25440 74-180 M165A limits assumed): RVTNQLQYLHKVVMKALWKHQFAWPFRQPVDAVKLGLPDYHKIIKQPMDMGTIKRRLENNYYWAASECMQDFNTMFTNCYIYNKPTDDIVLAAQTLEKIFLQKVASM
Protocol: as §1, §2, §3

[6] = biological target: T4, Brd2(2)*(Trp370Phe) (Homo sapiens, UniProt P25440, W370F); assay: DSF thermal shift; format: binding; details: mutant
T4 construct: Plasmids of the eight single BET bromodomain constructs Brd2(1), Brd2(2), Brd3(1), Brd3(2); His6 (N); made in house; host or cells: E. coli BL21(DE3)
T4 sequence (P25440 344-453 W370F limits assumed): as the sequence (P25440 344-453 M438L limits assumed) above, with W27F, L95M counted along it
Protocol: as §1, with “Prior to DSF assays, frozen proteins were buffer exchanged using Vivaspin®6 concentrators with a 10 kDa cutoff on a Centrifuge 5430 from Eppendorf at a speed of 6000×g to remove glycerol and to buffer the proteins in 20 mM HEPES pH 7.5 at 25° C. and 100 mM NaCl.” left out
as §2, §3

[7] = biological target: T5, Brd2(1)*(Trp097Phe) (Homo sapiens, UniProt P25440, W97F); assay: DSF thermal shift; format: binding; details: mutant
T5 construct: Plasmids of the eight single BET bromodomain constructs Brd2(1), Brd2(2), Brd3(1), Brd3(2); His6 (N); made in house; host or cells: E. coli BL21(DE3)
T5 sequence (P25440 74-180 W97F limits assumed): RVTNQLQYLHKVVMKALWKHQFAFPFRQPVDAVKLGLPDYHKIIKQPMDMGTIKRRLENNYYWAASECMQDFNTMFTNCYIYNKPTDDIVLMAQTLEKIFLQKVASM
Protocol: as §1, with “Prior to DSF assays, frozen proteins were buffer exchanged using Vivaspin®6 concentrators with a 10 kDa cutoff on a Centrifuge 5430 from Eppendorf at a speed of 6000×g to remove glycerol and to buffer the proteins in 20 mM HEPES pH 7.5 at 25° C. and 100 mM NaCl.” left out
as §2, §3

[8] = biological target: T6, Brd2(2) (Homo sapiens, UniProt P25440); assay: DSF thermal shift; format: binding; details: wild type
T6 construct: Plasmids of the eight single BET bromodomain constructs Brd2(1), Brd2(2), Brd3(1), Brd3(2); His6 (N); made in house; host or cells: E. coli BL21(DE3)
T6 sequence (P25440 344-453 limits assumed): as the sequence (P25440 344-453 M438L limits assumed) above, with L95M counted along it
Protocol: as §1, with “Prior to DSF assays, frozen proteins were buffer exchanged using Vivaspin®6 concentrators with a 10 kDa cutoff on a Centrifuge 5430 from Eppendorf at a speed of 6000×g to remove glycerol and to buffer the proteins in 20 mM HEPES pH 7.5 at 25° C. and 100 mM NaCl.” left out
as §2, §3

[9] = biological target: T7, Brd2(1)*(Trp097His) (Homo sapiens, UniProt P25440, W97H); assay: DSF thermal shift; format: binding; details: mutant
T7 construct: Plasmids of the eight single BET bromodomain constructs Brd2(1), Brd2(2), Brd3(1), Brd3(2); His6 (N); made in house; host or cells: E. coli BL21(DE3)
T7 sequence (P25440 74-180 W97H limits assumed): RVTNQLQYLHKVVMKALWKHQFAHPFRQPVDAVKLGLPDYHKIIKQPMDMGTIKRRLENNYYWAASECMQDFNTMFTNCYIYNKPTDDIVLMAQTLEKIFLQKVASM
Protocol: as §1, with “Prior to DSF assays, frozen proteins were buffer exchanged using Vivaspin®6 concentrators with a 10 kDa cutoff on a Centrifuge 5430 from Eppendorf at a speed of 6000×g to remove glycerol and to buffer the proteins in 20 mM HEPES pH 7.5 at 25° C. and 100 mM NaCl.” left out
as §2, §3

[10] = biological target: T8, Brd2(1) (Homo sapiens, UniProt P25440); assay: DSF thermal shift; format: binding; details: wild type
T8 construct: Plasmids of the eight single BET bromodomain constructs Brd2(1), Brd2(2), Brd3(1), Brd3(2); His6 (N); made in house; host or cells: E. coli BL21(DE3)
T8 sequence (P25440 74-180 limits assumed): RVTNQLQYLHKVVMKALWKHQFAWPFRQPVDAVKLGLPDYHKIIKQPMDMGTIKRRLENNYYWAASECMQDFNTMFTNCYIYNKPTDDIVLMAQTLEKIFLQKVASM
Protocol: as §1, with “Prior to DSF assays, frozen proteins were buffer exchanged using Vivaspin®6 concentrators with a 10 kDa cutoff on a Centrifuge 5430 from Eppendorf at a speed of 6000×g to remove glycerol and to buffer the proteins in 20 mM HEPES pH 7.5 at 25° C. and 100 mM NaCl.” left out
as §2, §3

[11] = biological target: T9, Brd2(2)*(Trp370His) (Homo sapiens, UniProt P25440, W370H); assay: DSF thermal shift; format: binding; details: mutant
T9 construct: Plasmids of the eight single BET bromodomain constructs Brd2(1), Brd2(2), Brd3(1), Brd3(2); His6 (N); made in house; host or cells: E. coli BL21(DE3)
T9 sequence (P25440 344-453 W370H limits assumed): as the sequence (P25440 344-453 M438L limits assumed) above, with W27H, L95M counted along it
Protocol: as §1, with “Prior to DSF assays, frozen proteins were buffer exchanged using Vivaspin®6 concentrators with a 10 kDa cutoff on a Centrifuge 5430 from Eppendorf at a speed of 6000×g to remove glycerol and to buffer the proteins in 20 mM HEPES pH 7.5 at 25° C. and 100 mM NaCl.” left out
as §2, §3

CCN(CC)C(=O)[C@H](C)[C@@H]1N=C(c2ccc(Cl)cc2)c2cc(OC)ccc2-n2c(C)nnc21 (racemic) [ME-Am2, (+−) (R)-2-((S)-6-(4-chlorophenyl)-8-methoxy-1-methyl-4H-benzo[f][1,2,4]triazolo[4,3-a][1,4]diazepin-4-yl)-N,N-diethylpropanamide]
Selectivity for Brd2(2) mutants relative to wild type by ITC (FIG. 16) [1]: higher selectivity for the mutants relative to wild types

CCNC(=O)[C@H](CC)[C@@H]1N=C(c2ccc(Cl)cc2)c2cc(OC)ccc2-n2c(C)nnc21 (racemic) [ET-Am1, (+−) (R)-2-((S)-6-(4-chlorophenyl)-8-methoxy-1-methyl-4H-benzo[f][1,2,4]triazolo[4,3-a][1,4]diazepin-4-yl)-N-ethylbutanamide]
Selectivity for Brd2(2) mutants relative to wild type by ITC (FIG. 16) [1]: higher selectivity for the mutants relative to wild types

CC[C@@H](C(=O)N(CC)CC)[C@@H]1N=C(c2ccc(Cl)cc2)c2cc(OC)ccc2-n2c(C)nnc21 (racemic) [ET-Am2, (+−) (R)-2-((S)-6-(4-chlorophenyl)-8-methoxy-1-methyl-4H-benzo[f][1,2,4]triazolo[4,3-a][1,4]diazepin-4-yl)-N,N-diethylbutanamide]
Selectivity for Brd2(2) mutants relative to wild type by ITC (FIG. 16) [1]: higher selectivity for the mutants relative to wild types

COc1ccccc1S(=O)(=O)Nc1ccc2c(c1)CN(C)C(=O)N2 [PFI-1, reference compound]
ΔTm Brd2(1)*(Met165-Leu) [2]: 1.3 ± 0.3 K | ΔTm Brd2(2)*(Met165-Leu) [3]: 2.1 ± 0.3 K | ΔTm Brd2(2)*(Met165-Ala) [4]: 1.7 ± 0.1 K | ΔTm Brd2(1)*(Met165-Ala) [5]: 1.6 ± 0.1 K | ΔTm Brd2(2)*(Tryp370-Phe) [6]: 2.9 ± 0.3 K | ΔTm Brd2(1)*(Tryp097-Phe) [7]: 2.6 ± 0.4 K | ΔTm Brd2(2) [8]: 4.5 ± 0.2 K | ΔTm Brd2(1)*(Tryp097-His) [9]: 1.9 ± 0.5 K | ΔTm Brd2(1) [10]: 4.5 ± 0.3 K | ΔTm Brd2(2)*(Tryp370-His) [11]: 1.8 ± 0.0 K

CCNC(=O)[C@H](C)[C@@H]1N=C(c2ccc(Cl)cc2)c2ccc(OC)cc2-n2c(C)nnc21 (racemic) [Compound 9-ME-Am1, (+−) (R)-2-((S)-6-(4-chlorophenyl)-9-methoxy-1-methyl-4H-benzo[f][1,2,4]triazolo[4,3-a][1,4]diazepin-4-yl)-N-ethylpropanamide]
Selectivity for Brd2(2) mutants relative to wild type by ITC (FIG. 16) [1]: higher selectivity for the mutants relative to wild types
